Assay [1] deals with KAT-8 (Homo sapiens (Human), UniProt Q9H7Z6). Put plainly: KAT-8 biochemical inhibition assay (SAMDI mass spectrometry). An outline of the steps: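 Acetylation of 1 μM peptide substrate with 5 μM acetyl-CoA by 12.5 nM enzyme, compound pre-incubated, 2% DMSO, Tris pH 8.0 buffer with DTT, 25 °C for 90 min. Quench with 0.5% formic acid; product read by SAMDI mass spectrometry to give IC50.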

Assay [2] concerns the target KAT-7 (Homo sapiens (Human), UniProt O95251). Put plainly: KAT-7 biochemical inhibition assay (SAMDI mass spectrometry). An outline of the steps:
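Read-out was SAMDI time-of-flight MS of formic acid-quenched reactions (0.5% final). Compound dilutions (2% DMSO final) were pre-incubated with 6 nM KAT-7 in 50 mM Tris pH 8.0 with 1 mM DTT, then given 1 μM peptide substrate and 2 μM acetyl-CoA for 120 min at 25 °C. IC50 values were derived.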

Assay [3] has as its target KAT-5 (Homo sapiens (Human), UniProt Q92993). Put plainly: KAT-5 biochemical inhibition assay (SAMDI mass spectrometry). An outline of the steps: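 Acetylation of 1 μM peptide by 9 nM enzyme with 0.5 μM acetyl-CoA (final) was run 90 min at 25° C in Tris pH 8.0 buffer with DTT, after compound preincubation at 2% DMSO. Formic acid stopped the reaction, and product was quantified by SAMDI mass spectrometry to derive IC50.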

Assay [4] deals with KAT-6A (Homo sapiens (Human), UniProt Q92794). Put plainly: KAT-6A biochemical inhibition assay (SAMDI mass spectrometry). An outline of the steps:
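IC50 values came from SAMDI time-of-flight mass spectrometry after formic acid quench (0.5% final). Acetylation ran 90 min at 25 °C with 1 μM acetyl coenzyme A and 1 μM peptide substrate, following compound pre-incubation with 12.5 nM KAT-6A in Tris buffer pH 8.0 containing DTT, 2% DMSO final.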

Chain of KAT-5 (Q92993 other isoform, or with tags, fused parts or gaps): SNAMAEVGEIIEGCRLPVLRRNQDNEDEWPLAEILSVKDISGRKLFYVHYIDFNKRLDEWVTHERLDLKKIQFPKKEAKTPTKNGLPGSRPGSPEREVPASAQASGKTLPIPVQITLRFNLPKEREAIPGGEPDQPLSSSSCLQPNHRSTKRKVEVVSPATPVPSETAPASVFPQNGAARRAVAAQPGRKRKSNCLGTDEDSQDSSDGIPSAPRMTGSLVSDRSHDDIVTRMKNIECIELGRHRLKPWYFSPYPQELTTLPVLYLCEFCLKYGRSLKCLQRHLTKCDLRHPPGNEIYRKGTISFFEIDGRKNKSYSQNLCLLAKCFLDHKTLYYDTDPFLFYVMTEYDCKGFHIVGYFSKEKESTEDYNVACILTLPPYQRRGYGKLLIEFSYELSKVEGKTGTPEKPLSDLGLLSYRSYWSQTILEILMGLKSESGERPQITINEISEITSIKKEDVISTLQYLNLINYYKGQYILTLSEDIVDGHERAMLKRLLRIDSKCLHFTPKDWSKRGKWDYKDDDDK
Chain of KAT-6A (Q92794 other isoform, or with tags, fused parts or gaps): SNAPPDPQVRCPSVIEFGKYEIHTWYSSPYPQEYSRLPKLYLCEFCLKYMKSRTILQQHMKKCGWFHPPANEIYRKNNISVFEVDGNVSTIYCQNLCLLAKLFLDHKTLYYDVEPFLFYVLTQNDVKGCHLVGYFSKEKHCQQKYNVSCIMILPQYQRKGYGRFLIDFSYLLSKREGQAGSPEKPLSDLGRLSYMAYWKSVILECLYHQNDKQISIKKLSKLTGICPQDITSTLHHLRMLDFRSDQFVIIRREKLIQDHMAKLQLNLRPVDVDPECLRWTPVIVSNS
Chain of KAT-8 (Q9H7Z6 other isoform, or with tags, fused parts or gaps): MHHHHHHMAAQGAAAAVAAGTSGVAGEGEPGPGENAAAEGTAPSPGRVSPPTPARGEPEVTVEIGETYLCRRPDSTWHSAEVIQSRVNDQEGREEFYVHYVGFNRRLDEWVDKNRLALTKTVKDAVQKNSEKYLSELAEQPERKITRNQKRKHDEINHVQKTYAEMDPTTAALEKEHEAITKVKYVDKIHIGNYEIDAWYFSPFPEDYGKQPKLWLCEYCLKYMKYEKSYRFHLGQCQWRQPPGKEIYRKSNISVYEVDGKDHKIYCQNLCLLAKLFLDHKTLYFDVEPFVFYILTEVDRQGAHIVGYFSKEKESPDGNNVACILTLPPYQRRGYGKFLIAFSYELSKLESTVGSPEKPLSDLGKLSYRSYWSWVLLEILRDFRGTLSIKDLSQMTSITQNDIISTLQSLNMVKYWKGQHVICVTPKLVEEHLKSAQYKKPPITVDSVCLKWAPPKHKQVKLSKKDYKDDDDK
Chain of KAT-7 (O95251 other isoform, or with tags, fused parts or gaps): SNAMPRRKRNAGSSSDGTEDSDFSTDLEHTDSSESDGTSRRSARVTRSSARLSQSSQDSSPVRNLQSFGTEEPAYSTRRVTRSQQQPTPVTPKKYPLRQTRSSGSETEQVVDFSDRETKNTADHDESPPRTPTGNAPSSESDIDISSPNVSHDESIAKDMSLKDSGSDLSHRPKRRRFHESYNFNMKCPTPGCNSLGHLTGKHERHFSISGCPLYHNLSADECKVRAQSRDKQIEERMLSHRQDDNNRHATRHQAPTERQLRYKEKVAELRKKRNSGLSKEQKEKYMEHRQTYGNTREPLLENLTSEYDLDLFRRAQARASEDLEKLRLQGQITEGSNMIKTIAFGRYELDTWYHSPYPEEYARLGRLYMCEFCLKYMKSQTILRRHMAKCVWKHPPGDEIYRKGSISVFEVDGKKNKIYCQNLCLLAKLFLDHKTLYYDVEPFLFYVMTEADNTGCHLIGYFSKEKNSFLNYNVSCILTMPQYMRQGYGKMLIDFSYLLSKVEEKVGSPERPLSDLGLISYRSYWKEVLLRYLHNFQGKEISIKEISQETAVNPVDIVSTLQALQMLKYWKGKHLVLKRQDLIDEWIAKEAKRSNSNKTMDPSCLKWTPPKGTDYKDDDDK

Consider `Cc1ncc(-c2cc(Cl)c(F)c(C(=O)NNS(=O)(=O)C3CCCCC3)c2)n1C` [Compound I-59], for which the IC50 in assay [1] is > 100 µM; in assay [2], > 100 µM; in assay [3] it was 10 to 50 µM; in assay [4], > 100 µM.

Regarding `CCn1c(-c2cc(Cl)c(F)c(C(=O)NNS(=O)(=O)C3CCCCC3)c2)cnc1C` [Compound I-61], the IC50 in assay [1] was > 100 µM; in assay [2], 10 to 50 µM; in assay [3], > 100 µM; in assay [4] it was > 100 µM.

For `COCC(=O)N1CCC(CS(=O)(=O)NNC(=O)c2cc(-c3cn(C)cn3)cc(Cl)c2F)C1` (stereo not shown) [Compound I-62], the IC50 is 10 to 50 µM in assay [1], < 10 µM in assay [2], 10 to 50 µM in assay [3] and 10 to 50 µM in assay [4].

Take `Cn1cnc(-c2cc(Cl)c(F)c(C(=O)NNS(=O)(=O)CC3CCN(S(C)(=O)=O)C3)c2)c1` (stereo not shown) [Compound I-63]: the IC50 in assay [1] was 10 to 50 µM; in assay [2] it was < 10 µM; in assay [3] it was < 10 µM; in assay [4], < 10 µM.

For `CCNC(=O)N1CCC(CS(=O)(=O)NNC(=O)c2cc(-c3cn(C)cn3)cc(Cl)c2F)C1` (stereo not shown) [Compound I-64], the IC50 was 10 to 50 µM in assay [1], < 10 µM in assay [2], < 10 µM in assay [3] and < 10 µM in assay [4].

As for `Cn1cnc(-c2cc(Cl)c(F)c(C(=O)NNS(=O)(=O)c3cnn(C)c3)c2)c1` [Compound I-65], the IC50 in assay [1] was > 100 µM; in assay [2], < 10 µM; in assay [3], 50 to 100 µM; in assay [4] it was 10 to 50 µM.

Regarding `CN(C)C(=O)N1CCC(CS(=O)(=O)NNC(=O)c2cc(-c3cn(C)cn3)cc(Cl)c2F)C1` (stereo not shown) [Compound I-66], the IC50 in assay [1] was 10 to 50 µM; in assay [2], < 10 µM; in assay [3] it was < 10 µM; in assay [4], < 10 µM.

On to `Cn1cc(-c2cc(Cl)c(F)c(C(=O)NNS(=O)(=O)CC3CCOCC3)c2)nn1` [Compound I-67], for which the IC50 in assay [1] was > 100 µM; in assay [2] it was 10 to 50 µM; in assay [3], 10 to 50 µM; in assay [4], 10 to 50 µM.

As for `O=C(NNS(=O)(=O)CC1CCOCC1)c1cc(-c2cocn2)cc(Cl)c1F` [Compound I-68], the IC50 in assay [1] is 10 to 50 µM; in assay [2], 10 to 50 µM; in assay [3] it was < 10 µM; in assay [4], 10 to 50 µM.

As for `Cn1cnc(-c2cc(Cl)c(F)c(C(=O)NNS(=O)(=O)c3cn(C)nn3)c2)c1` [Compound I-69], the IC50 in assay [1] was 10 to 50 µM; in assay [2] it was < 10 µM; in assay [3] it was 10 to 50 µM; in assay [4] it was 10 to 50 µM.

Consider `Cc1nc(-c2cc(Cl)c(F)c(C(=O)NNS(=O)(=O)CC3CCOCC3)c2)cs1` [Compound I-70], for which the IC50 in assay [1], in assay [2], in assay [3] and in assay [4] was 10 to 50 µM in each case.

With `Cn1cnc(-c2cc(Cl)c(F)c(C(=O)NNS(=O)(=O)c3cnnn3C)c2)c1` [Compound I-71], the IC50 in assay [1] is 10 to 50 µM; in assay [2], < 10 µM; in assay [3], 10 to 50 µM; in assay [4], 10 to 50 µM.

As to `Cn1cnc(-c2cc(Cl)c(F)c(C(=O)NNS(=O)(=O)c3cnn(C)n3)c2)c1` [Compound I-72], the IC50 in assay [1] was 10 to 50 µM; in assay [2], < 10 µM; in assay [3], 10 to 50 µM; in assay [4], < 10 µM.

As to `CCC(=O)N1CCC(CS(=O)(=O)NNC(=O)c2cc(-c3cn(C)cn3)cc(Cl)c2F)C1` (stereo not shown) [Compound I-73], the IC50 in assay [1] is 10 to 50 µM; in assay [2], < 10 µM; in assay [3], < 10 µM; in assay [4], 10 to 50 µM.

As for `Cc1ncn(-c2cc(Cl)c(F)c(C(=O)NNS(=O)(=O)CC3CCOCC3)c2)n1` [Compound I-74], the IC50 in assay [1], in assay [2], in assay [3] and in assay [4] was 10 to 50 µM each time.

For `CCS(=O)(=O)N1CCC(CS(=O)(=O)NNC(=O)c2cc(-c3cn(C)cn3)cc(Cl)c2F)C1` (stereo not shown) [Compound I-75], the IC50 is 10 to 50 µM in assay [1], < 10 µM in assay [2], < 10 µM in assay [3] and < 10 µM in assay [4].

In the case of `Cc1ncn(-c2cc(Cl)c(F)c(C(=O)NNS(=O)(=O)C3CCOCC3)c2)n1` [Compound I-77], the IC50 in assay [1], in assay [2], in assay [3] and in assay [4] was 10 to 50 µM throughout.

Regarding `CNC(=O)N1CCC(CS(=O)(=O)NNC(=O)c2cc(-c3cn(C)cn3)cc(Cl)c2F)C1` (stereo not shown) [Compound I-78], the IC50 was 10 to 50 µM in assay [1], < 10 µM in assay [2], < 10 µM in assay [3] and 10 to 50 µM in assay [4].

For `CN1CCC(CS(=O)(=O)NNC(=O)c2cc(-c3cn(C)cn3)cc(Cl)c2F)C1` (stereo not shown) [Compound I-79], the IC50 is 10 to 50 µM in assay [1], < 10 µM in assay [2], 10 to 50 µM in assay [3] and 10 to 50 µM in assay [4].

With `Cc1nc(-c2cc(Cl)c(F)c(C(=O)NNS(=O)(=O)CC3CCOCC3)c2)co1` [Compound I-80], the IC50 in assay [1] was 10 to 50 µM; in assay [2], 10 to 50 µM; in assay [3], 10 to 50 µM; in assay [4] it was < 10 µM.

As for `Cc1ncc(-c2cc(Cl)c(F)c(C(=O)NNS(=O)(=O)CC3CCOCC3)c2)[nH]1` [Compound I-81], the IC50 in assay [1] was 10 to 50 µM; in assay [2], 10 to 50 µM; in assay [3], < 10 µM; in assay [4], < 10 µM.

In the case of `CCS(=O)(=O)N1CCCC(CS(=O)(=O)NNC(=O)c2cc(-c3cn(C)cn3)cc(Cl)c2F)C1` (stereo not shown) [Compound I-82], the IC50 was 10 to 50 µM in assay [1], < 10 µM in assay [2], < 10 µM in assay [3] and < 10 µM in assay [4].

`Cn1cnc(-c2cc(Cl)c(F)c(C(=O)NNS(=O)(=O)CC3CCN(C(=O)CCO)C3)c2)c1` (stereo not shown) [Compound I-83]: the IC50 in assay [1] was 10 to 50 µM; in assay [2], < 10 µM; in assay [3], 10 to 50 µM; in assay [4], 10 to 50 µM.

For `Cn1cnc(-c2cc(Cl)c(F)c(C(=O)NNS(=O)(=O)CC3CCN(S(=O)(=O)C4CC4)C3)c2)c1` (stereo not shown) [Compound I-84], the IC50 in assay [1] is 10 to 50 µM; in assay [2], < 10 µM; in assay [3], < 10 µM; in assay [4] it was < 10 µM.

Take `CCCS(=O)(=O)N1CCC(CS(=O)(=O)NNC(=O)c2cc(-c3cn(C)cn3)cc(Cl)c2F)C1` (stereo not shown) [Compound I-85]: the IC50 in assay [1] was 10 to 50 µM; in assay [2] it was < 10 µM; in assay [3] it was < 10 µM; in assay [4], < 10 µM.

`Cn1cnc(-c2cc(Cl)c(F)c(C(=O)NNS(=O)(=O)CC3CCCN(S(=O)(=O)C4CC4)C3)c2)c1` (stereo not shown) [Compound I-86]: the IC50 in assay [1] is 10 to 50 µM; in assay [2], < 10 µM; in assay [3], < 10 µM; in assay [4], < 10 µM.

Regarding `O=C(NNS(=O)(=O)CC1CCCCC1)c1cc(-n2ccnn2)cc(Cl)c1F` [Compound I-87], the IC50 was 10 to 50 µM in assay [1], 10 to 50 µM in assay [2], 10 to 50 µM in assay [3] and < 10 µM in assay [4].

Turning to `CCNC(=O)N1CCC(CS(=O)(=O)NNC(=O)c2cc(-c3cn(C)cn3)cc(Cl)c2F)C1` (stereo not shown) [Compound I-88], the 50% inhibitory concentration (IC50) in assay [1] was 10 to 50 µM; in assay [2] it was < 10 µM; in assay [3] it was < 10 µM; in assay [4] it was 10 to 50 µM.

Broadly, the IC50 is the concentration that inhibits the measured activity by half. Low readings indicate greater potency, high ones weaker potency.

For the origin of these results see US11685732B2, “MYST family histone acetyltransferase inhibitors” (Epizyme, Inc., priority 2017, dated 2023).
